Converted amounts (≈) assume the structure as drawn. Where two headings read alike, the source gives them in different places.
Key:
[1] = Solubility in non-aqueous electrolyte solvents; assay type: physicochemical; settings: for solubility in non-aqueous electrolyte solvents (in words): neutral state
[2] = Thermal gravimetric analysis (thermal stability); assay type: physicochemical
Protocol: Thermal stabilities were analyzed using a PerkinElmer Pyris Diamond TG/DTA analyzer. The temperature was increased from room temperature to 600° C. at a heating rate of 10° C. min^−1 under N2 atmosphere. […] The greater thermal stability of (−)-NDI-Δ is attributed to its higher molecular weight and more rigid structure compared to NDI-Ref.

| Compound | solubility in non-aqueous electrolyte solvents (in words) [1] | solubility in the electrolyte solvents ([1]; electrolyte solvents) [µg/mL] | thermal stability: temperature up to which stable / at which decomposition starts ([2]; TGA, room temperature to 600° C. at 10° C. min^−1 under N2, one-step decomposition) [°C] | thermal stability: temperature up to which stable / at which decomposition starts [2] [°C] |
| --- | --- | --- | --- | --- |
| O=C1c2ccc3c4c5ccc(c24)C(=O)N1C1CCCC[C@@H]1N1C(=O)c2ccc4c6c(ccc(c26)C1=O)C(=O)N(C4=O)[C@H]1CCCC[C@@H]1N1C(=O)c2ccc4c6c(ccc(c26)C1=O)C(=O)N(C4=O)C1CCCC[C@@H]1N(C3=O)C5=O (single isomer, unassigned; (+)) [(+)-NDI-Δ] | only sparingly soluble |  |  |  |
| O=C1c2ccc3c4c(ccc(c24)C(=O)N1C1CCCCC1)C(=O)N(C1CCCCC1)C3=O [NDI-Ref] | considerably more soluble | ~100 (≈ 232 µM) | 250 |  |
| O=C1c2ccc3c4c5ccc(c24)C(=O)N1C1CCCC[C@H]1N1C(=O)c2ccc4c6c(ccc(c26)C1=O)C(=O)N(C4=O)C1CCCC[C@H]1N1C(=O)c2ccc4c6c(ccc(c26)C1=O)C(=O)N(C4=O)C1CCCC[C@H]1N(C3=O)C5=O (single isomer, unassigned; (-)) [(−)-NDI-Δ] | only sparingly soluble |  |  | 400 |

From patent US10903496B2, “Rigid naphthalenediimide triangle structures” (Northwestern University, priority 2015, dated 2021)
